Results: the SangsterLogP compilation

Experiment: method code SF-AS, from Dearden, C.; O'Hara, H. (1978). Partition coefficients of some alkyl derivatives of 4-acetamidophenol. Eur J Med Chem, 13(5)415-419.

Row | logP | Structure (SMILES)
1 | 1.71 | CC(=O)Nc1ccc(O)c(C(C)C)c1
2 | 0.95 | CC(=O)Nc1c(C)c(C)c(O)c(C)c1C
3 | 0.57 | CC(=O)Nc1ccc(O)c(C)c1C
4 | 0.75 | CC(=O)Nc1c(C)cc(O)c(C)c1C
5 | 0.17 | CC(=O)Nc1ccc(O)cc1C
6 | 1.11 | CC(=O)Nc1cc(C)c(O)c(C)c1
7 | 0.79 | CC(=O)Nc1ccc(O)c(C)c1
8 | 3.18 | CC(=O)Nc1cc(C(C)(C)C)c(O)c(C(C)(C)C)c1
9 | 0.6 | CC(=O)Nc1cc(C)c(O)cc1C
10 | 0.82 | CC(=O)Nc1cc(C)c(O)c(C)c1C
11 | 1.31 | CCc1cc(NC(C)=O)ccc1O
12 | 0.31 | CC(=O)Nc1c(C)cc(O)cc1C
13 | 2.36 | CC(=O)Nc1ccc(O)c(C(C)(C)C)c1
14 | 1.87 | CCc1cc(NC(C)=O)cc(CC)c1O
